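A five-concentration, 48-hour dose response in 96-well plates underlies each endpoint, interpolated linearly between surrounding concentrations. The concentration for 50% growth inhibition is given as GI50.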 The source made the active and inactive calls. Rule as the data show it: active = GI50 up to about 1.1 µM and inactive = higher.
Legend:
Test in all cases: NCI tumour cell line growth inhibition, 48 h
SNB-75 = tested on: SNB-75
OVCAR-5 = tested on: OVCAR-5
A549 = tested on: A549
DU-145 = tested on: DU-145
MCF7 = tested on: MCF7
OVCAR-8 = tested on: OVCAR-8
UO-31 = tested on: UO-31
HOP-92 = tested on: HOP-92
U-251 = tested on: U-251
COLO 205 = tested on: COLO 205
OVCAR-4 = tested on: OVCAR-4
SN12C = tested on: SN12C
HCT-15 = tested on: HCT-15
SW-620 = tested on: SW-620
TK-10 = tested on: TK-10
MDA-MB-435 = tested on: MDA-MB-435
UACC-257 = tested on: UACC-257
786-0 = tested on: 786-0
HL-60 = tested on: HL-60
M14 = tested on: M14
HOP-62 = tested on: HOP-62
LOX IMVI = tested on: LOX IMVI
SF-539 = tested on: SF-539
NCI/ADR-RES = tested on: NCI/ADR-RES
EKVX = tested on: EKVX
OVCAR-3 = tested on: OVCAR-3
HT-29 = tested on: HT-29
SNB-19 = tested on: SNB-19
MOLT-4 = tested on: MOLT-4
KM12 = tested on: KM12
NCI-H226 = tested on: NCI-H226
SK-OV-3 = tested on: SK-OV-3
NCI-H460 = tested on: NCI-H460
IGROV-1 = tested on: IGROV-1
SK-MEL-28 = tested on: SK-MEL-28
BT-549 = tested on: BT-549
T47D = tested on: T47D
CAKI-1 = tested on: CAKI-1
ACHN = tested on: ACHN
PC-3 = tested on: PC-3
SK-MEL-5 = tested on: SK-MEL-5
NCI-H23 = tested on: NCI-H23
HCC 2998 = tested on: HCC 2998
HCT-116 = tested on: HCT-116
MDA-N = tested on: MDA-N
SF-295 = tested on: SF-295
MDA-MB-231 = tested on: MDA-MB-231
SK-MEL-2 = tested on: SK-MEL-2
UACC-62 = tested on: UACC-62
K562 = tested on: K562
RPMI-8226 = tested on: RPMI-8226
RXF 393 = tested on: RXF 393
SR = tested on: SR
SF-268 = tested on: SF-268
CCRF-CEM = tested on: CCRF-CEM
NCI-H522 = tested on: NCI-H522
A498 = tested on: A498
Malme-3M = tested on: Malme-3M

With `CCOC(=O)Cc1csc2[n+]1C(=O)/C(=C/c1cccc(OC)c1O)S2` the GI50 (SNB-75) was 18.7 µM (inactive), the GI50 (OVCAR-5) was > 100 µM (inactive) and the GI50 (A549) was 67.5 µM (inactive). For the same molecule, the GI50 (DU-145) was 73.3 µM (inactive), the GI50 (MCF7) was 45.3 µM (inactive) and the GI50 (OVCAR-8) was 52.6 µM (inactive). The GI50 (UO-31) was 28.7 µM (inactive), the GI50 (HOP-92) was 93.8 µM (inactive) and the GI50 (U-251) was 0.192 µM (active). The GI50 (COLO 205) was 78.5 µM (inactive), the GI50 (OVCAR-4) was 64.4 µM (inactive) and the GI50 (SN12C) was 81.5 µM (inactive). For the same molecule, the GI50 (HCT-15) was 42.4 µM, the GI50 (SW-620) was > 100 µM (inactive) and the GI50 (TK-10) was 46.2 µM (inactive). For the same molecule, the GI50 (MDA-MB-435) was 11.9 µM (inactive), the GI50 (UACC-257) was 61.8 µM (inactive) and the GI50 (786-0) was 68.7 µM (inactive). For the same molecule, the GI50 (HL-60) was 45.8 µM (inactive), the GI50 (M14) was 77.6 µM (inactive) and the GI50 (HOP-62) was > 100 µM (inactive). For the same molecule, the GI50 (LOX IMVI) was 51.8 µM (inactive), the GI50 (SF-539) was 60.8 µM (inactive) and the GI50 (NCI/ADR-RES) was 47 µM (inactive). The GI50 (EKVX) was 74.1 µM (inactive), the GI50 (OVCAR-3) was 38.2 µM (inactive) and the GI50 (HT-29) was 39 µM (inactive). The GI50 (SNB-19) was 50.9 µM (inactive), the GI50 (MOLT-4) was 4.43 µM (inactive) and the GI50 (KM12) was 38.1 µM (inactive). For the same molecule, the GI50 (NCI-H226) was > 100 µM (inactive), the GI50 (SK-OV-3) was > 100 µM (inactive) and the GI50 (NCI-H460) was 41.9 µM (inactive). The GI50 (IGROV-1) was 45.4 µM (inactive), the GI50 (SK-MEL-28) was 84.9 µM (inactive) and the GI50 (BT-549) was 13.8 µM (inactive). For the same molecule, the GI50 (T47D) was 36.3 µM (inactive), the GI50 (CAKI-1) was 59.2 µM (inactive) and the GI50 (ACHN) was 69.5 µM (inactive). The GI50 (PC-3) was 40.8 µM (inactive), the GI50 (SK-MEL-5) was 42.9 µM (inactive) and the GI50 (NCI-H23) was 33.7 µM (inactive). The GI50 (HCC 2998) was 32.2 µM (inactive), the GI50 (HCT-116) was 45.5 µM (inactive) and the GI50 (MDA-N) was 40.1 µM (inactive). The GI50 (SF-295) was 73.5 µM (inactive), the GI50 (MDA-MB-231) was 51.5 µM (inactive) and the GI50 (SK-MEL-2) was 45 µM (inactive). For the same molecule, the GI50 (UACC-62) was 97.7 µM (inactive).
In the case of `COc1cccc(-c2nc(-c3cnccn3)n(COCCO)n2)c1`, the GI50 (K562) is reported as > 100 µM (inactive), the GI50 (OVCAR-5) is reported as > 100 µM (inactive) and the GI50 (RPMI-8226) is reported as > 100 µM (inactive). For the same molecule, the GI50 (RXF 393) was > 100 µM (inactive), the GI50 (A549) was > 100 µM (inactive) and the GI50 (SR) was > 100 µM (inactive). The GI50 (DU-145) was > 100 µM (inactive), the GI50 (MCF7) was > 100 µM (inactive) and the GI50 (OVCAR-8) was > 100 µM (inactive). The GI50 (UO-31) was > 100 µM (inactive), the GI50 (HOP-92) was > 100 µM (inactive) and the GI50 (U-251) was > 100 µM (inactive). The GI50 (COLO 205) was > 100 µM (inactive), the GI50 (OVCAR-4) was > 100 µM (inactive) and the GI50 (SN12C) was > 100 µM (inactive). For the same molecule, the GI50 (HCT-15) was over 100 µM, the GI50 (SW-620) was > 100 µM (inactive) and the GI50 (TK-10) was > 100 µM (inactive). For the same molecule, the GI50 (MDA-MB-435) was > 100 µM (inactive), the GI50 (UACC-257) was > 100 µM (inactive) and the GI50 (786-0) was > 100 µM (inactive). The GI50 (HL-60) was > 100 µM (inactive), the GI50 (M14) was > 100 µM (inactive) and the GI50 (HOP-62) was > 100 µM (inactive). For the same molecule, the GI50 (LOX IMVI) was > 100 µM (inactive), the GI50 (SF-539) was > 100 µM (inactive) and the GI50 (SF-268) was > 100 µM (inactive). The GI50 (NCI/ADR-RES) was > 100 µM (inactive), the GI50 (CCRF-CEM) was > 100 µM (inactive) and the GI50 (OVCAR-3) was > 100 µM (inactive). For the same molecule, the GI50 (HT-29) was > 100 µM (inactive), the GI50 (SNB-19) was > 100 µM (inactive) and the GI50 (MOLT-4) was > 100 µM (inactive). For the same molecule, the GI50 (KM12) was > 100 µM (inactive), the GI50 (SK-OV-3) was > 100 µM (inactive) and the GI50 (NCI-H460) was > 100 µM (inactive). The GI50 (IGROV-1) was > 100 µM (inactive), the GI50 (NCI-H522) was > 100 µM (inactive) and the GI50 (SK-MEL-28) was > 100 µM (inactive). The GI50 (BT-549) was > 100 µM (inactive), the GI50 (T47D) was > 100 µM (inactive) and the GI50 (PC-3) was > 100 µM (inactive). The GI50 (SK-MEL-5) was > 100 µM (inactive), the GI50 (NCI-H23) was > 100 µM (inactive) and the GI50 (HCC 2998) was > 100 µM (inactive). The GI50 (HCT-116) was > 100 µM (inactive), the GI50 (MDA-N) was > 100 µM (inactive) and the GI50 (SF-295) was > 100 µM (inactive). For the same molecule, the GI50 (MDA-MB-231) was > 100 µM (inactive) and the GI50 (UACC-62) was > 100 µM (inactive).
`O=C1CCCCC(=O)OC2(CCCCC2=O)CC1` (stereo not drawn) was tested, and the GI50 (K562) was > 100 µM (inactive), the GI50 (SNB-75) was 5.82 µM (inactive) and the GI50 (OVCAR-5) was > 100 µM (inactive). For the same molecule, the GI50 (RPMI-8226) was > 100 µM (inactive), the GI50 (RXF 393) was > 100 µM (inactive) and the GI50 (A549) was > 100 µM (inactive). For the same molecule, the GI50 (SR) was > 100 µM (inactive), the GI50 (DU-145) was > 100 µM (inactive) and the GI50 (MCF7) was > 100 µM (inactive). The GI50 (OVCAR-8) was > 100 µM (inactive), the GI50 (A498) was > 100 µM (inactive) and the GI50 (UO-31) was > 100 µM (inactive). The GI50 (HOP-92) was > 100 µM (inactive), the GI50 (U-251) was > 100 µM (inactive) and the GI50 (COLO 205) was > 100 µM (inactive). The GI50 (OVCAR-4) was > 100 µM (inactive), the GI50 (SN12C) was > 100 µM (inactive) and the GI50 (HCT-15) was over 100 µM. For the same molecule, the GI50 (SW-620) was > 100 µM (inactive), the GI50 (TK-10) was > 100 µM (inactive) and the GI50 (MDA-MB-435) was > 100 µM (inactive). The GI50 (UACC-257) was > 100 µM (inactive), the GI50 (786-0) was > 100 µM (inactive) and the GI50 (M14) was > 100 µM (inactive). For the same molecule, the GI50 (HOP-62) was > 100 µM (inactive), the GI50 (Malme-3M) was > 100 µM (inactive) and the GI50 (SF-539) was > 100 µM (inactive). The GI50 (SF-268) was > 100 µM (inactive), the GI50 (NCI/ADR-RES) was > 100 µM (inactive) and the GI50 (CCRF-CEM) was > 100 µM (inactive). The GI50 (OVCAR-3) was > 100 µM (inactive), the GI50 (HT-29) was > 100 µM (inactive) and the GI50 (MOLT-4) was > 100 µM (inactive). The GI50 (KM12) was > 100 µM (inactive), the GI50 (NCI-H226) was > 100 µM (inactive) and the GI50 (SK-OV-3) was > 100 µM (inactive). For the same molecule, the GI50 (NCI-H460) was > 100 µM (inactive), the GI50 (IGROV-1) was > 100 µM (inactive) and the GI50 (NCI-H522) was > 100 µM (inactive). The GI50 (SK-MEL-28) was > 100 µM (inactive), the GI50 (BT-549) was > 100 µM (inactive) and the GI50 (T47D) was > 100 µM (inactive). The GI50 (CAKI-1) was > 100 µM (inactive), the GI50 (ACHN) was > 100 µM (inactive) and the GI50 (PC-3) was > 100 µM (inactive). The GI50 (SK-MEL-5) was > 100 µM (inactive), the GI50 (NCI-H23) was > 100 µM (inactive) and the GI50 (HCC 2998) was > 100 µM (inactive). For the same molecule, the GI50 (HCT-116) was > 100 µM (inactive), the GI50 (MDA-N) was > 100 µM (inactive) and the GI50 (SF-295) was > 100 µM (inactive). The GI50 (MDA-MB-231) was > 100 µM (inactive), the GI50 (SK-MEL-2) was > 100 µM (inactive) and the GI50 (UACC-62) was > 100 µM (inactive).
